Data taken from patent publication US10947188B2, “Small molecule ferroptosis inducers” (THE TRUSTEES OF COLUMBIA UNIVERSITY IN THE CITY OF NEW YORK, priority 2016, dated 2021).

What was measured:
HT-1080 = experiment: Modulatory profiling: Alamar Blue viability, lethal compound cotreated with death modulator (EC50, AUC); assay type: cell-based; parameters: AUC, modulator HT.3MA / AUC, modulator HT.ALLN / AUC HT.ATA / AUC HT.ActD / AUC HT.BHA / AUC HT.BHT / AUC HT.BocD / AUC HT.CHX / AUC HT.Co2+ / AUC HT.DPQ / AUC HT.EGTA / AUC HT.Lmim / AUC HT.NAD+ / AUC HT.Nec-1 / AUC HT.SP600125 / AUC HT.TLCK / AUC HT.U0126: unit not given beside the values; conditions: for AUC HT.ATA: HT-1080, modulator ATA; for AUC HT.ActD: HT-1080, modulator ActD; for AUC HT.BHA: HT-1080, modulator BHA; for AUC HT.BHT: HT-1080, modulator BHT; for AUC HT.BocD: HT-1080, modulator BocD; for AUC HT.CHX: HT-1080, modulator CHX; for AUC HT.Co2+: HT-1080, modulator Co2+; for AUC HT.CspA: HT-1080, modulator CspA; for AUC HT.DPQ: HT-1080, modulator DPQ; for AUC HT.EGTA: HT-1080, modulator EGTA; for AUC HT.Gd3+: HT-1080, modulator Gd3+; for AUC HT.LNAME: HT-1080, modulator LNAME; for AUC HT.Lmim: HT-1080, modulator Lmim; for AUC HT.NAD+: HT-1080, modulator NAD+; for AUC HT.NMMA: HT-1080, modulator NMMA; for HT.atoc (AUC) / HT.bCarotene (AUC) / HT.deferox (AUC) / HT.digoxin (AUC) / HT.trolox (AUC) / HT.zVAD (AUC): HT-1080; for HT.atoc (AUC): modulator atoc; for HT.bCarotene (AUC): modulator bCarotene; for HT.deferox (AUC): modulator deferox; for HT.digoxin (AUC): modulator digoxin; for HT.trolox (AUC): modulator trolox; for HT.zVAD (AUC): modulator zVAD; for AUC HT.BHA: reference of the scale not given here; for AUC HT.EGTA: reference of the scale not given here
BJeLR = experiment: as above; assay type: cell-based, human; parameters: AUC, modulator BJ.Gd3+ / AUC, modulator BJ.LNAME / AUC, modulator BJ.Lmin / AUC, modulator BJ.3MA / AUC, modulator BJ.ALLN / AUC, modulator BJ.Boc D / AUC, modulator BJ.CHX / AUC, modulator BJ.Co2+ / AUC, modulator BJ.Nec-1 / AUC, modulator BJ.Pepstatin / AUC, modulator BJ.TLCK / AUC, modulator BJ.atoc / AUC, modulator BJ.trolox / AUC, modulator BJ.zVAD: unit not given beside the values; conditions: BJeLR cells, modulatory profile value (AUC); for AUC, modulator BJ.3MA: lethal compound cotreated with modulator 3MA; for AUC, modulator BJ.ALLN: lethal compound cotreated with modulator ALLN; for AUC, modulator BJ.Boc D: lethal compound cotreated with modulator Boc D; for AUC, modulator BJ.CHX: lethal compound cotreated with modulator CHX; for AUC, modulator BJ.Co2+: lethal compound cotreated with modulator Co2+; for AUC, modulator BJ.DPQ: lethal compound cotreated with modulator DPQ; for AUC, modulator BJ.Gd3+: lethal compound cotreated with modulator Gd3+; for AUC, modulator BJ.LNAME: lethal compound cotreated with modulator LNAME; for AUC, modulator BJ.Lmin/NAD+: lethal compound cotreated with modulator Lmin/NAD+; for AUC, modulator BJ.Lmin: lethal compound cotreated with modulator Lmin; for AUC, modulator BJ.NAD+: lethal compound cotreated with modulator NAD+; for AUC, modulator BJ.NMMA: lethal compound cotreated with modulator NMMA; for AUC, modulator BJ.Nec-1: lethal compound cotreated with modulator Nec-1; for AUC, modulator BJ.Pepstatin: lethal compound cotreated with modulator Pepstatin; for AUC, modulator BJ.TLCK: lethal compound cotreated with modulator TLCK
Throughout, for AUC, modulator BJ.3MA: reference of the scale not given here.
Throughout, for AUC, modulator BJ.ALLN: reference of the scale not given here.
Throughout, for AUC, modulator BJ.Boc D: reference of the scale not given here.
Throughout, for AUC, modulator BJ.CHX: reference of the scale not given here.
Throughout, for AUC, modulator BJ.Co2+: reference of the scale not given here.
Throughout, for AUC, modulator BJ.DPQ: reference of the scale not given here.
Throughout, for AUC, modulator BJ.Gd3+: reference of the scale not given here.
Throughout, for AUC, modulator BJ.LNAME: reference of the scale not given here.
Throughout, for AUC, modulator BJ.NAD+: reference of the scale not given here.
Throughout, for AUC, modulator BJ.NMMA: reference of the scale not given here.
Throughout, for AUC, modulator BJ.Nec-1: reference of the scale not given here.
Throughout, for AUC, modulator BJ.Pepstatin: reference of the scale not given here.
Throughout, for AUC, modulator BJ.TLCK: reference of the scale not given here.

## COc1cc2c(c(OC)c1OC)-c1ccc(OC)c(=O)cc1[C@@H](NC(C)=O)CC2 [Colchicine]
HT-1080
  AUC HT.ATA: 0.1325
  AUC HT.ActD: 0.01343
  AUC HT.BHA: 0.01506
  AUC HT.BHT: −0.006747
  AUC HT.BocD: 0.1264
  AUC HT.CHX: 0.04333
  AUC HT.Co2+: 0.1098
  AUC HT.CspA: −0.1209
  AUC HT.DPQ: 0.01511
  AUC HT.EGTA: −0.000119
  AUC HT.Gd3+: 0.01351
  AUC HT.LNAME: 0.008236
  AUC HT.Lmim: 0.1199
  AUC HT.NAD+: 0.1471
  AUC HT.NMMA: 0.008585
  HT.atoc (AUC): −0.0173
  HT.bCarotene (AUC): 0.01723
  HT.deferox (AUC): 0.2984
  HT.digoxin (AUC): 0.1359
  HT.trolox (AUC): 0.01591
  HT.zVAD (AUC): 0.134
HT-1080; HT-1080, modulator Nec-1
  AUC HT.Nec-1: 0.01661
HT-1080; HT-1080, modulator Pepstatin
  AUC HT.Pepstatin: 0.004413
HT-1080; HT-1080, modulator SP600125
  AUC HT.SP600125: −0.02858
HT-1080; HT-1080, modulator TLCK
  AUC HT.TLCK: 0.0306
HT-1080; HT-1080, modulator U0126
  AUC HT.U0126: 0.2237
HT-1080; HT-1080 cells, lethal compound cotreated with modulator 3MA, modulatory profile value (AUC)
  AUC, modulator HT.3MA: 0.01861
HT-1080; HT-1080 cells, lethal compound cotreated with modulator ALLN, modulatory profile value (AUC)
  AUC, modulator HT.ALLN: 0.1932
BJeLR
  AUC, modulator BJ.3MA: 0.003026
  AUC, modulator BJ.ALLN: −0.03356
  AUC, modulator BJ.Boc D: −0.0009082
  AUC, modulator BJ.CHX: 0.161
  AUC, modulator BJ.Co2+: 0.1688
  AUC, modulator BJ.DPQ: −0.03053
  AUC, modulator BJ.Gd3+: −0.01061
  AUC, modulator BJ.LNAME: −0.008548
  AUC, modulator BJ.Lmin/NAD+: 0.1409
  AUC, modulator BJ.Lmin: 0.05808
  AUC, modulator BJ.NAD+: 0.1128
  AUC, modulator BJ.NMMA: −0.005221
  AUC, modulator BJ.Nec-1: −0.04443
  AUC, modulator BJ.Pepstatin: 0.003669
  AUC, modulator BJ.TLCK: −0.01338
BJeLR; lethal compound cotreated with modulator atoc
  AUC, modulator BJ.atoc: −0.02812
BJeLR; lethal compound cotreated with modulator trolox
  AUC, modulator BJ.trolox: −0.004229
BJeLR; lethal compound cotreated with modulator zVAD
  AUC, modulator BJ.zVAD: 0.05702

## CCC(C(NNC(=O)c1ccc(C(F)(F)F)cc1)c1ccc(C(F)(F)F)cc1)[N+](=O)O (stereo not shown) [CIL88]
HT-1080
  AUC HT.ATA: 0.08122
  AUC HT.ActD: −0.03102
  AUC HT.BHA: 0.007109
  AUC HT.BHT: −0.09988
  AUC HT.BocD: 0.02037
  AUC HT.CHX: 0.04478
  AUC HT.Co2+: 0.01652
  AUC HT.CspA: −0.05842
  AUC HT.DPQ: −0.01431
  AUC HT.EGTA: 0.01878
  AUC HT.Gd3+: −0.03651
  AUC HT.LNAME: 0.02199
  AUC HT.Lmim: 0.01907
  AUC HT.NAD+: 0.007478
  AUC HT.NMMA: −0.000615
  HT.atoc (AUC): 0.07162
  HT.bCarotene (AUC): 0.02318
  HT.deferox (AUC): 0.0616
  HT.digoxin (AUC): 0.05526
  HT.trolox (AUC): −0.01577
  HT.zVAD (AUC): 0.04371
BJeLR
  AUC, modulator BJ.3MA: 0.03093
  AUC, modulator BJ.ALLN: −0.1424
  AUC, modulator BJ.Boc D: −0.01445
  AUC, modulator BJ.CHX: 0.2354
  AUC, modulator BJ.Co2+: 0.05379
  AUC, modulator BJ.DPQ: −0.03608
  AUC, modulator BJ.Gd3+: −0.03652
  AUC, modulator BJ.LNAME: 0.0201
  AUC, modulator BJ.Lmin/NAD+: 0.03399
  AUC, modulator BJ.Lmin: −0.01241
  AUC, modulator BJ.NAD+: −0.03559
  AUC, modulator BJ.NMMA: −0.01217
  AUC, modulator BJ.Nec-1: −0.03649
  AUC, modulator BJ.Pepstatin: −0.06126
  AUC, modulator BJ.TLCK: 0.0209

## O=S1(=O)Nc2c(ccc3cccnc23)-c2ccccc21 [CIL67]
HT-1080
  AUC HT.ATA: 0.08909
  AUC HT.ActD: 0.06498
  AUC HT.BHA: −0.03558
  AUC HT.BHT: −0.1041
  AUC HT.BocD: −0.02378
  AUC HT.CHX: 0.1458
  AUC HT.Co2+: 0.03257
  AUC HT.CspA: 0.01638
  AUC HT.DPQ: −0.01092
  AUC HT.EGTA: 0.1234
  AUC HT.Gd3+: −0.01945
  AUC HT.LNAME: −0.007515
  AUC HT.Lmim: 0.01912
  AUC HT.NAD+: −0.01795
  AUC HT.NMMA: −0.01349
  HT.atoc (AUC): 0.05006
  HT.bCarotene (AUC): 0.04657
  HT.deferox (AUC): 0.1176
  HT.digoxin (AUC): −0.02175
  HT.trolox (AUC): −0.05687
  HT.zVAD (AUC): 0.004996
BJeLR
  AUC, modulator BJ.3MA: 0.02312
  AUC, modulator BJ.ALLN: 0.02149
  AUC, modulator BJ.Boc D: 0.00578
  AUC, modulator BJ.CHX: 0.3083
  AUC, modulator BJ.Co2+: 0.03708
  AUC, modulator BJ.DPQ: −0.005089
  AUC, modulator BJ.Gd3+: 0.0143
  AUC, modulator BJ.LNAME: 0.01177
  AUC, modulator BJ.Lmin/NAD+: 0.1599
  AUC, modulator BJ.Lmin: −0.08787
  AUC, modulator BJ.NAD+: −0.07272
  AUC, modulator BJ.NMMA: −0.01601
  AUC, modulator BJ.Nec-1: −0.02018
  AUC, modulator BJ.Pepstatin: 0.08703
  AUC, modulator BJ.TLCK: 0.06141
